Data taken from PubChem BioAssay (NCI).
“And” between values parts separate entries of the source, which are not always exact repeats. Equal values may be shown once.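 Where inhibition never reached the appropriate level, the endpoint shown equals the highest concentration tested. Otherwise, values were interpolated linearly from a five-concentration, 48-hour dose response in 96-well plates. GI50 marks 50% less growth. Definition used: TGI = concentration required for complete inhibition of growth.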

Assays:
Assay in all cases: NCI tumour cell line growth inhibition, 48 h
A498 renal = system: A498 renal
HL-60(TB) leukemia = system: HL-60(TB) leukemia
SF-295 CNS = system: SF-295 CNS
BT-549 breast = system: BT-549 breast
COLO 205 colon = system: COLO 205 colon
TK-10 renal = system: TK-10 renal
CAKI-1 renal = system: CAKI-1 renal
MDA-MB-231 breast = system: MDA-MB-231 breast
M14 melanoma = system: M14 melanoma
T-47D breast = system: T-47D breast

SMILES	GI50 (A498 renal)	TGI (A498 renal)	GI50 (HL-60(TB) leukemia)	TGI (HL-60(TB) leukemia)	GI50 (SF-295 CNS)	TGI (SF-295 CNS)	GI50 (BT-549 breast)	TGI (BT-549 breast)	GI50 (COLO 205 colon)	TGI (COLO 205 colon)	GI50 (TK-10 renal)	TGI (TK-10 renal)	GI50 (CAKI-1 renal)	TGI (CAKI-1 renal)	GI50 (MDA-MB-231 breast)	TGI (MDA-MB-231 breast)	GI50 (M14 melanoma)	TGI (M14 melanoma)	GI50 (T-47D breast)	TGI (T-47D breast)
O=C(OCc1ccc2ccccc2n1)c1cn(C2CC2)c2cc(N3CCN(Cc4ccc5ccccc5n4)CC3)c(F)cc2c1=O	25.2 µM	> 82.1 µM	> 100 µM	> 100 µM	35.2 µM	> 100 µM	23.1 µM	68 µM	49.6 µM	> 100 µM	31.9 µM	> 74.6 µM	55.7 µM	> 100 µM	> 46.9 µM	> 84 µM	> 56.3 µM	99.8 µM	12.9 µM	> 100 µM
COC1C=COC2(C)Oc3c(C)c(O)c4c(c3C2=O)/C(=N/C2CCC(O)OC2C)C=C(NC(=O)/C(C)=C\C(=O)C2CC2C(O)C(C)C(O)C(C)C(OC(C)=O)C1C)C4=O (stereo unspecified)		8.36 µM		6.32 µM		13.3 µM		6.28 µM		3.38 µM		7.25 µM		9.92 µM		5.69 µM		4.47 µM		8.61 µM
N#CC1(C(N)=O)C(c2ccc(Cl)cc2)CC(=O)CC1c1ccc(Cl)cc1 (stereo unspecified)	14.7 µM	27.8 µM	20.2 µM	51.6 µM	15 µM	33.4 µM	14.6 µM	27.7 µM	15.6 µM	30.4 µM	17.1 µM	39.5 µM	20.4 µM	55.9 µM	13.8 µM	28.9 µM	16.2 µM	29.7 µM	17.4 µM	41.8 µM
O=C(/C=C/c1ccccc1)CCN1CCOCC1		44 µM		16.4 µM		38.8 µM		17.9 µM		20 µM		26.7 µM		16.4 µM		35.1 µM		29 µM		44 µM
c1cnn2ncc(-c3ccnc(NCCCN4CCOCC4)n3)c2c1	4.18 µM	12.2 µM	6.08 µM	17.7 µM	5.81 µM	> 20.4 µM	7.5 µM	> 25 µM	3.9 µM	7.96 µM	6.67 µM	> 23.2 µM	6.64 µM	> 25 µM	8.04 µM	> 25 µM	8.63 µM	> 25 µM	5.93 µM	> 21.3 µM
CC1=C2[C@@H](CC1)[C@]1(C)O[C@@](c3ccccc3)(C[C@H]1OC(=O)CO)[C@H]2OC(=O)/C=C/c1ccccc1	0.0966 µM	0.478 µM	7.43 µM	27.4 µM	12.8 µM	31.7 µM	0.487 µM	15.8 µM	16 µM	33.6 µM	21.9 µM	49.3 µM	12.5 µM	41.4 µM	19.2 µM	49.5 µM	15.8 µM	39.1 µM	9.37 µM	48.8 µM
COc1ccccc1-c1cc(=O)c2cc(C)cnc2[nH]1		79.2 µM	9.53 µM	76.2 µM	31.1 µM	> 100 µM		> 100 µM		52.5 µM		> 100 µM		> 100 µM		> 100 µM		> 100 µM		> 100 µM
O=[N+]([O-])c1ccc(C=Cc2ccccc2)cc1.[C-]#[O+].[C-]#[O+].[C-]#[O+].[Cr]	7.53 µM	> 100 µM	5.2 µM	> 100 µM	42.1 µM	> 100 µM	24.1 µM	> 100 µM	23.9 µM	> 100 µM	12 µM	> 100 µM	11.9 µM	> 100 µM	46.9 µM	> 100 µM	7.58 µM	> 100 µM	4.19 µM	> 100 µM
OCC1OC(n2cnc3c(N/N=C\c4ccccn4)ncnc32)C(O)C1O (stereo unspecified)	0.762 µM	> 100 µM	0.0247 µM	0.204 µM	0.936 µM	16.5 µM	0.256 µM	23 µM	0.622 µM	> 100 µM	0.159 µM	> 100 µM	0.202 µM	0.809 µM	0.0781 µM	> 57.3 µM	0.426 µM	3.89 µM	0.282 µM	21 µM
CCOc1ccccc1C(=O)N1CCN(c2cc(Cl)cc(Cl)c2)CC1	0.0288 µM	4.36 µM	0.0254 µM	0.078 µM	0.0252 µM	0.779 µM	0.0429 µM	4.34 µM	0.0287 µM	0.0853 µM	9.16 µM	24 µM	0.0257 µM	12.5 µM	0.0444 µM	12.3 µM	0.0293 µM	1.72 µM	0.393 µM	29.9 µM
OCc1ccc(N2CCCC2c2ccccc2)cc1Cl (stereo unspecified)	0.136 µM	0.306 µM	3.07 µM	11.1 µM	2.34 µM	7.77 µM	7.12 µM	18.7 µM	3.26 µM	11.8 µM	0.195 µM	1.27 µM	2.83 µM	17.4 µM	5.58 µM	24.9 µM	5.24 µM	21.3 µM	0.358 µM	4.71 µM
CN1CCN(C(=O)c2cc(-c3ccc4ncnc(N5CCc6cc(F)c(Cl)cc65)c4c3)cnc2N)CC1	0.104 µM	0.361 µM	0.0535 µM	0.409 µM	0.288 µM	1.84 µM	0.181 µM	1.57 µM	0.446 µM	3.5 µM	0.178 µM	1.45 µM	0.165 µM	1.21 µM	0.444 µM	3.12 µM	0.338 µM	4.75 µM	0.0651 µM	1.84 µM
OCC12C3C4C5C3C1C5C42 (stereo unspecified)		> 100 µM		> 100 µM		> 100 µM		> 100 µM		> 100 µM		> 100 µM		> 100 µM		> 100 µM		> 100 µM		> 100 µM
CC(C)NCCCn1c(Sc2cc3c(cc2I)OCO3)nc2c(N)ncnc21	0.435 µM	5.6 µM	0.0637 µM	6.91 µM	0.143 µM	8.52 µM	1.51 µM	> 100 µM	0.0477 µM	10.8 µM	0.161 µM	> 100 µM	0.527 µM	> 21.1 µM	0.481 µM	61 µM	0.233 µM	20.9 µM	0.155 µM	> 100 µM
CCOC(=O)C1=C(C)N(c2ccc(Cl)cc2)[C@]2(C#N)C(O)=C(Cl)C(Cl)=C(O)[C@]12C#N	> 100 µM	> 100 µM	88.2 µM	> 100 µM	> 100 µM	> 100 µM	1.57 µM	33.4 µM	59.6 µM	> 100 µM	65.4 µM	> 100 µM	38 µM	> 100 µM	38.8 µM	> 100 µM	49.7 µM	> 100 µM	16.9 µM	81 µM
COc1cc2c(cc1OCCCn1c(-c3ccccn3)nc3ccccc31)N=C[C@@H]1CCCN1C2=O	3.96 µM	14.5 µM	4.45 µM	> 24.6 µM	4.05 µM	49.7 µM	1.6 µM	4.87 µM	2.22 µM	4.9 µM	3.32 µM	10.9 µM	2.16 µM	5.6 µM	2.5 µM	13.5 µM	0.92 µM	2.8 µM	2.14 µM	8.13 µM
O=C(Nc1ccc(OCc2nnc(-c3ccc(Cl)cc3)o2)c(F)c1)Nc1ccc(Cl)c(C(F)(F)F)c1	1.18 µM	7.43 µM	2.83 µM	6.78 µM	2.26 µM	6.99 µM	3.06 µM	11 µM	1.73 µM	3.5 µM	3.72 µM	17 µM	2.97 µM	12.2 µM	2.35 µM	7.64 µM	2.23 µM	11.7 µM	2.21 µM	8.66 µM
NC(CSC1c2ccccc2-c2ccccc21)C(=O)O (stereo unspecified)		> 100 µM		> 100 µM		> 100 µM		> 100 µM		> 100 µM		> 100 µM		> 100 µM		> 100 µM		> 100 µM		> 100 µM
O=C1NC(=O)C(N2C(=O)c3ccccc3C2=O)CC1O (stereo unspecified)	> 100 µM	> 100 µM	> 100 µM	> 100 µM	> 100 µM	> 100 µM	> 100 µM	> 100 µM	> 100 µM	> 100 µM	> 100 µM	> 100 µM	> 100 µM	> 100 µM	> 100 µM	> 100 µM	> 100 µM	> 100 µM	> 100 µM	> 100 µM
Cc1cc(S(=O)(=O)/N=C(/N)Nc2ccccc2O)c(SCc2ccccc2)cc1Cl	21.2 µM	39.1 µM	4.22 µM	> 100 µM	19 µM	39.5 µM	8.2 µM	22.8 µM	23 µM	47.8 µM	22.9 µM	41.2 µM	13.5 µM	32.3 µM	14.8 µM	32.2 µM	15.3 µM	32.3 µM	12.2 µM	31.4 µM
FC(F)(F)c1ccc(-c2cnc(-c3ncon3)nc2NC2CCCCCC2)cc1	42.9 µM	> 100 µM	22.3 µM	48 µM	34.5 µM	> 100 µM	38.5 µM	> 100 µM	27.7 µM	84.8 µM	> 100 µM	> 100 µM	67.9 µM	> 100 µM	22.5 µM	89 µM	56.3 µM	> 100 µM	25.6 µM	87.3 µM
Nc1nc(OCc2ccccc2)c2[nH]cnc2n1	15.2 µM	183 µM and 71.3 µM	39.8 µM and 17.7 µM	181 µM and 57.8 µM	35.2 µM and 24.1 µM	395 µM and 118 µM	24.3 µM and 22.1 µM	115 µM	57 µM and 36.1 µM	288 µM and 151 µM	56.4 µM and 11.7 µM	183 µM and 104 µM	13.2 µM and 13.4 µM	44.2 µM and 72.4 µM and 43.5 µM	36.5 µM and 31.5 µM	163 µM	25.6 µM and 26.5 µM	204 µM and 116 µM	24.9 µM and 23.2 µM	205 µM
O=S(=O)(Nc1cc(Sc2cccc3cccnc23)c(O)c2ccccc12)c1ccc(F)cc1	3.96 µM	24.1 µM	2.12 µM	5.88 µM	3.34 µM	12.8 µM	3.04 µM	13.7 µM	1.69 µM	3.51 µM	2.81 µM	11.5 µM	2.79 µM		0.837 µM	8.9 µM	1.27 µM	3.53 µM	1.75 µM	4.67 µM
CCc1ccc2c(c1)N(CCO)C1=C(C(=O)OC1)C2c1cccc(Br)c1 (stereo unspecified)	0.373 µM	8.84 µM	0.317 µM	2.21 µM	0.374 µM	13.2 µM	1.35 µM	19.7 µM	0.358 µM	1.42 µM	1.81 µM	18.4 µM	0.711 µM	23 µM	2.43 µM	15.7 µM	0.525 µM	10.8 µM	0.54 µM	19.6 µM
CC(=O)/C=C/c1cn(C(=O)OC(C)(C)C)c2ccc(Br)cc12	20.1 µM	39.7 µM	29.6 µM	> 100 µM	14.1 µM	28.8 µM	5.87 µM	26.4 µM	19.5 µM	42.1 µM	17.6 µM	33.9 µM	22.1 µM	42.5 µM	18.9 µM	43.8 µM	30.1 µM	> 100 µM	17.4 µM	54.4 µM
O=C1OCC2=C1C(c1ccc(Cl)c(Cl)c1)c1cc3c(cc1N2CCO)OCCO3 (stereo unspecified)	0.147 µM	1.84 µM	0.135 µM	0.587 µM	0.151 µM	2.84 µM	0.583 µM	15.5 µM	0.21 µM	1.14 µM	0.513 µM	20 µM	0.277 µM	> 35.5 µM	0.833 µM	7.59 µM	0.264 µM	5.65 µM	0.282 µM	> 50 µM
O=C(O)c1ccc(C(=O)c2ccccc2)c(C(=O)O)c1		> 100 µM		> 100 µM		> 100 µM		> 100 µM		> 100 µM		> 100 µM		> 100 µM		> 100 µM		> 100 µM		> 100 µM
